Results taken from the supplement of paper PMC6965134.
± gives the standard deviation of the averaged measurements.

Test: TIMS collisional cross section (CCS, N2) of the lipid ion; higher = larger ion cross section
Details: ionization mode: positive, one isomer drawn

Row | SMILES | TIMS collisional cross section (sample type: HeLa) | TIMS collisional cross section (sample type: plasma) | TIMS collisional cross section (sample type: Liver)
1 | CC/C=C\C/C=C\C/C=C\C/C=C\C/C=C\C/C=C\CCC(=O)O[C@H](COCCCCCCCCCCCCCCCCCCCC)COP(=O)([O-])OCC[N+](C)(C)C [PC O- 20:0@_22:6] (ion (formula + adduct): [C50H90NO7P+H] 1+) | 305.7 Å² | 304.9 Å² | 
2 | CC/C=C\C/C=C\C/C=C\C/C=C\C/C=C\C/C=C\CCC(=O)O[C@H](CO/C=C\CCCCCCCCCCCCCC)COP(=O)([O-])OCC[N+](C)(C)C [PC P- 16:0@_22:6] (ion (formula + adduct): [C46H80NO7P+H] 1+) | 291.3 Å² |  | 
3 | CCCCCCCCCCCCCC/C=C\OC[C@H](COP(=O)([O-])OCC[N+](C)(C)C)OC(=O)CCCCCCCCCCCCCCC [PC P- 16:0_16:0] (ion (formula + adduct): [C40H80NO7P+H] 1+) | 284.4 Å² | 284.4 Å² | 
4 | CC/C=C\C/C=C\C/C=C\C/C=C\C/C=C\C/C=C\CCC(=O)O[C@H](CO/C=C\CCCCCCCCCCCCCCCC)COP(=O)([O-])OCC[N+](C)(C)C [PC P- 18:0@_22:6] (ion (formula + adduct): [C48H84NO7P+H] 1+) | 297.1 ± 0.71 Å² |  | 
5 | CC/C=C\C/C=C\C/C=C\C/C=C\C/C=C\C/C=C\CCC(=O)O[C@H](COC(=O)CCCCCCCCCCCCCC)COP(=O)(O)OCCN [PE 15:0@_22:6] (ion (formula + adduct): [C42H72NO8P+H] 1+) |  |  | 275.7 Å²
6 | CCCCCCCC/C=C\CCCCCCCC(=O)O[C@H](COC(=O)CCCCCCCCCCCCCCC)COP(=O)(O)OCCN [PE 16:0@_18:1] (ion (formula + adduct): [C39H76NO8P+H] 1+) |  | 275.3 Å² | 275.7 Å²
7 | CC/C=C\C/C=C\C/C=C\C/C=C\C/C=C\C/C=C\CCC(=O)O[C@H](COC(=O)CCCCCCCCCCCCCCC)COP(=O)(O)OCCN [PE 16:0@_22:6] (ion (formula + adduct): [C43H74NO8P+H] 1+) |  | 279.1 Å² | 
8 | CCCCCCCCCCCCCCCC(=O)OC[C@H](COP(=O)(O)OCCN)OC(=O)CCCCCCCCCCCCC [PE 16:0_14:0@] (ion (formula + adduct): [C35H70NO8P+H] 1+) | 267.4 Å² |  | 
9 | CCCCCCCC/C=C\CCCCCCCC(=O)O[C@H](COC(=O)CCCCCCCCCCCCCCC)COP(=O)(O)OCCN [PE 16:0_18:1] (ion (formula + adduct): [C39H76NO8P+H] 1+) | 275.3 Å² |  | 
10 | CC/C=C\C/C=C\C/C=C\CCCCCCCC(=O)O[C@H](COC(=O)CCCCCCCCCCCCCCC)COP(=O)(O)OCCN [PE 16:0_18:3@] (ion (formula + adduct): [C39H72NO8P+H] 1+) |  |  | 269.9 Å²
11 | CCCCC/C=C\C/C=C\C/C=C\C/C=C\CCCC(=O)O[C@H](COC(=O)CCCCCCCCCCCCCCC)COP(=O)(O)OCCN [PE 16:0_20:4] (ion (formula + adduct): [C41H74NO8P+H] 1+) | 276.1 ± 1.1 Å² |  | 277.25 ± 0.49 Å²
12 | CC/C=C\C/C=C\C/C=C\C/C=C\C/C=C\C/C=C\CCC(=O)O[C@H](COC(=O)CCCCCCCCCCCCCCC)COP(=O)(O)OCCN [PE 16:0_22:6@] (ion (formula + adduct): [C43H74NO8P+H] 1+) |  |  | 280.9 Å²
13 | CC/C=C\C/C=C\C/C=C\C/C=C\C/C=C\C/C=C\CCC(=O)O[C@H](COC(=O)CCCCCCCCCCCCCCC)COP(=O)(O)OCCN [PE 16:0_22:6] (ion (formula + adduct): [C43H74NO8P+H] 1+) | 278.6 Å² |  | 
14 | CCCCC/C=C\C/C=C\C/C=C\CCCCC(=O)O[C@H](COC(=O)CCCCCCC/C=C\CCCCCC)COP(=O)(O)OCCN [PE 16:1@_18:3] (ion (formula + adduct): [C39H70NO8P+H] 1+) |  |  | 266 Å²
15 | CCCCCC/C=C\CCCCCCCC(=O)OC[C@H](COP(=O)(O)OCCN)OC(=O)CCCCCCC/C=C\CCCCCC [PE 16:1_16:1] (ion (formula + adduct): [C37H70NO8P+Na] 1+) | 266.4 Å² |  | 
16 | CC/C=C\C/C=C\C/C=C\C/C=C\C/C=C\CCCC(=O)O[C@H](COC(=O)CCCCCCC/C=C\CCCCCC)COP(=O)(O)OCCN [PE 16:1_20:5@] (ion (formula + adduct): [C41H70NO8P+H] 1+) | 269.8 Å² |  | 269.8 Å²
17 | CCCCC/C=C\C/C=C\C/C=C\C/C=C\CCCC(=O)O[C@H](COC(=O)CCCCCCCCCCCCCCCC)COP(=O)(O)OCCN [PE 17:0_20:4@] (ion (formula + adduct): [C42H76NO8P+H] 1+) | 280.4 Å² |  | 280.35 ± 0.071 Å²
18 | CCCCC/C=C\C/C=C\C/C=C\C/C=C\CCCC(=O)O[C@H](COC(=O)CCCCCCC/C=C\CCCCCCC)COP(=O)(O)OCCN [PE 17:1_20:4] (ion (formula + adduct): [C42H74NO8P+H] 1+) |  |  | 275.6 Å²
19 | CCCCCCCCCCCCCCCCCC(=O)OC[C@H](COP(=O)(O)OCCN)OC(=O)CCCCCCCCCCCCCCC [PE 18:0@_16:0] (ion (formula + adduct): [C39H78NO8P+H] 1+) | 280.3 Å² |  | 
20 | CCCCCCCC/C=C\CCCCCCCC(=O)O[C@H](COC(=O)CCCCCCCCCCCCCCCCC)COP(=O)(O)OCCN [PE 18:0@_18:1] (ion (formula + adduct): [C41H80NO8P+H] 1+) |  | 282.1 Å² | 282.2 Å²
21 | CCCCC/C=C\C/C=C\C/C=C\CCCCC(=O)O[C@H](COC(=O)CCCCCCCCCCCCCCCCC)COP(=O)(O)OCCN [PE 18:0@_18:3] (ion (formula + adduct): [C41H76NO8P+H] 1+) |  | 279 Å² | 

Further lines, results first:

Row | TIMS collisional cross section (sample type: HeLa) | TIMS collisional cross section (sample type: plasma) | TIMS collisional cross section (sample type: Liver) | SMILES
22 | 301.9 Å² |  |  | CCCCC/C=C\C/C=C\C/C=C\C/C=C\CCCCCC(=O)O[C@H](COCCCCCCCCCCCCCCCCCC)COP(=O)([O-])OCC[N+](C)(C)C [PC O- 18:0@_22:4] (ion (formula + adduct): [C48H90NO7P+H] 1+)
23 | 300.2 Å² |  |  | CCCCC/C=C\C/C=C\C/C=C\C/C=C\C/C=C\CCC(=O)O[C@H](COCCCCCCCCCCCCCCCCCC)COP(=O)([O-])OCC[N+](C)(C)C [PC O- 18:0@_22:5] (ion (formula + adduct): [C48H88NO7P+H] 1+)
24 |  | 294 Å² |  | CCCCC/C=C\C/C=C\C/C=C\C/C=C\CCCC(=O)O[C@H](COCCCCCCCC/C=C\CCCCCCCC)COP(=O)([O-])OCC[N+](C)(C)C [PC O- 18:1@_20:4] (ion (formula + adduct): [C46H84NO7P+H] 1+)
25 |  |  | 299.9 Å² | CC/C=C\C/C=C\C/C=C\C/C=C\CCCCCCC(=O)O[C@H](COCCCCCCCCCC/C=C\CCCCCCCC)COP(=O)([O-])OCC[N+](C)(C)C [PC O- 20:1@_20:4] (ion (formula + adduct): [C48H88NO7P+H] 1+)
26 | 281.9 Å² |  |  | CCCCCC/C=C\CCCCCCCC(=O)O[C@H](CO/C=C\CCCCCCCCCCCCCC)COP(=O)([O-])OCC[N+](C)(C)C [PC P- 16:0@_16:1] (ion (formula + adduct): [C40H78NO7P+H] 1+)
27 |  | 287.7 Å² |  | CCCCCCCC/C=C\CCCCCCCC(=O)O[C@H](CO/C=C\CCCCCCCCCCCCCC)COP(=O)([O-])OCC[N+](C)(C)C [PC P- 16:0@_18:1] (ion (formula + adduct): [C42H82NO7P+H] 1+)
28 | 288.6 Å² |  |  | CCCCCC/C=C\CCCCCCCC(=O)O[C@H](CO/C=C\CCCCCCCCCCCCCCCC)COP(=O)([O-])OCC[N+](C)(C)C [PC P- 18:0@_16:1] (ion (formula + adduct): [C42H82NO7P+H] 1+)
29 |  | 296.1 Å² |  | CCCCC/C=C\C/C=C\C/C=C\CCCCCCC(=O)O[C@H](CO/C=C\CCCCCCCCCCCCCCCC)COP(=O)([O-])OCC[N+](C)(C)C [PC P- 18:0@_20:3] (ion (formula + adduct): [C46H86NO7P+H] 1+)
30 |  |  | 300.4 Å² | CCCCC/C=C\C/C=C\C/C=C\C/C=C\CCCCCC(=O)O[C@H](CO/C=C\CCCCCCCCCCCCCCCC)COP(=O)([O-])OCC[N+](C)(C)C [PC P- 18:0@_22:4] (ion (formula + adduct): [C48H88NO7P+H] 1+)
31 | 299.9 Å² |  |  | CC/C=C\C/C=C\C/C=C\C/C=C\C/C=C\CCCC(=O)O[C@H](CO/C=C\CCCCCCCCCCCCCCCCCC)COP(=O)([O-])OCC[N+](C)(C)C [PC P- 20:0@_20:5] (ion (formula + adduct): [C48H86NO7P+H] 1+)
32 | 304.8 Å² |  |  | CC/C=C\C/C=C\C/C=C\C/C=C\C/C=C\C/C=C\CCC(=O)O[C@H](CO/C=C\CCCCCCCCCCCCCCCCCC)COP(=O)([O-])OCC[N+](C)(C)C [PC P- 20:0@_22:6] (ion (formula + adduct): [C50H88NO7P+H] 1+)
33 |  | 273 Å² | 272.9 Å² | CCCCC/C=C\C/C=C\CCCCCCCC(=O)O[C@H](COC(=O)CCCCCCCCCCCCCCC)COP(=O)(O)OCCN [PE 16:0_18:2] (ion (formula + adduct): [C39H74NO8P+H] 1+)
34 |  |  | 268.7 Å² | CCCCCC/C=C\CCCCCCCC(=O)OC[C@H](COP(=O)(O)OCCN)OC(=O)CCCCCCCCCCCCCCC [PE 16:1@_16:0] (ion (formula + adduct): [C37H72NO8P+H] 1+)
35 | 262 Å² |  |  | CCCCCC/C=C\CCCCCCCC(=O)OC[C@H](COP(=O)(O)OCCN)OC(=O)CCCCCCCCCCCCC [PE 16:1_14:0] (ion (formula + adduct): [C35H68NO8P+H] 1+)
36 | 268.7 Å² |  |  | CCCCCC/C=C\CCCCCCCC(=O)OC[C@H](COP(=O)(O)OCCN)OC(=O)CCCCCCCCCCCCCCC [PE 16:1_16:0] (ion (formula + adduct): [C37H72NO8P+H] 1+)
37 | 268.3 Å² |  |  | CCCCCC/C=C\CCCCCCCC(=O)OC[C@H](COP(=O)(O)OCCN)OC(=O)CCCCCCC/C=C\CCCCCCC [PE 16:1_17:1@] (ion (formula + adduct): [C38H72NO8P+H] 1+)
